Columns and labels:
Sbv333-ATA = molecular target: T1, Sbv333-ATA (Streptomyces odorifer, UniProt A0A7Y6F089); assay: glycine oxidase (GO) coupled assay; acetophenone formation at […] nm; type: biochemical; details: 2 mM amine, 50 mM HEPES pH 9.0, room temperature (GO assay)
T1 construct: gene G6W59_16020; 6xHis-tagged, pETite vector, E. coli BL21(DE3) with GroES/GroEL, Ni-NTA (plus SEC for crystals); residues 1-459 described; dimer about 100 kDa by gel filtration; catalytic Lys289

[1] = molecular target: Sbv333-ATA, (S)-selective amine transaminase from a Streptomyces strain (Streptomyces sp.); assay: SEC; analytical gel filtration, single peak; methods describe a calibrated Superdex 200 pg HiLoad 16/600 column, 20 mM HEPES pH 9.0, 500 mM NaCl

T1 sequence (A0A7Y6F089 entry or part of it): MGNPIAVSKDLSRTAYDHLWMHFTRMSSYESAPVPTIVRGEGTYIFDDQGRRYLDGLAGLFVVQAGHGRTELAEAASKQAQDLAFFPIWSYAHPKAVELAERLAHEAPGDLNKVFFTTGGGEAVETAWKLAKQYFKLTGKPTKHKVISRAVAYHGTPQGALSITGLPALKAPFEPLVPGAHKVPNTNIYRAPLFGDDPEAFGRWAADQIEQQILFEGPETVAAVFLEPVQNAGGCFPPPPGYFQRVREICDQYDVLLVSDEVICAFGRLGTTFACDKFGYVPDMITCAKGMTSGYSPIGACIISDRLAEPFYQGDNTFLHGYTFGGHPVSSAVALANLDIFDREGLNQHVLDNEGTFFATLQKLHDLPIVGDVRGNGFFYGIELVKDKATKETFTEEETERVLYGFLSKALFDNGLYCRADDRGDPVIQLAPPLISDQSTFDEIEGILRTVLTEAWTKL

| Compound | glycine oxidase (GO) coupled assay; acetophenone formation at 245 nm (Sbv333-ATA) | stoichiometry N [1] |
| --- | --- | --- |
| C[C@H](N)c1ccccc1 [compound 1, (S)-methylbenzylamine] | The enzyme was active toward a diverse set of substrates, including (S)-methylbenzylamine ((S)-1) |  |
| Sbv333-ATA, (S)-selective amine transaminase from a Streptomyces strain (enzyme) |  | 2 |

Reference: article PMC12343752, “Functional and structural insights into a thermostable (S)-selective amine transaminase and its improved substrate scope by protein engineering” (Applied Microbiology and Biotechnology, 2025)
